According to the supplement of paper PMC11061612:

Assays:
Assay in all cases: combination Emax (second highest fraction inhibited in the dose matrix, 72 h); higher = more inhibition; extreme values may be limits of the assay
[1] = system: PANC-04-03 (Pancreatic Carcinoma)
Outline: (§1)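 After 24 hours at 37°C and 5% CO2 in 1536-well plates, cells in DMEM/F12 or RPMI plus 10% FBS received two-drug dose matrices for 72 hours. Viability came from CellTiter-Glo 2.0 luminescence and was scaled as inhibition, anchored at 0 by vehicle wells and at 1 by blank wells. Combination Emax is taken as the second-highest inhibition in the matrix, and Bliss excess as the observed combination effect less EA + EB − EA·EB, with EA and EB the single-agent effects.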

[2] = system: Ca9-22 (Head and Neck Carcinoma)
Outline: as §1

[3] = system: NB69 (Neuroblastoma)
Outline: as §1

[4] = system: HOP-62 (Lung Adenocarcinoma)
Outline: as §1

[5] = system: KARPAS-299 (T-Cell Non-Hodgkin's Lymphoma)
Outline: as §1

[6] = system: EW-24 (Ewing's Sarcoma)
Outline: as §1

[7] = system: MIA-PaCa-2 (Pancreatic Carcinoma)
Outline: as §1

[8] = system: SCC-15 (Oral Cavity Carcinoma)
Outline: as §1

[9] = system: BT-549 (Breast Carcinoma)
Outline: as §1

[10] = system: EoL-1-cell (Acute Myeloid Leukemia)
Outline: as §1

[11] = system: KMOE-2 (Acute Myeloid Leukemia)
Outline: as §1

[12] = system: SW13 (Other Solid Carcinomas)
Outline: as §1

[13] = system: C-4-I (Cervical Carcinoma)
Outline: as §1

[14] = system: NEC8 (Other Solid Carcinomas)
Outline: as §1

[15] = system: RF-48 (B-Cell Non-Hodgkin's Lymphoma)
Outline: as §1

[16] = system: YH-13 (Glioblastoma)
Outline: as §1

[17] = system: PWR-1E (Non-Cancerous)
Outline: as §1

[18] = system: D-263MG (Glioblastoma)
Outline: as §1

[19] = system: VA-ES-BJ (Other Solid Carcinomas)
Outline: as §1

[20] = system: EFM-19 (Breast Carcinoma)
Outline: as §1

CN(C)CCCOc1ccc(-c2ccc3ncc4c(c3c2)n(C2CCOCC2)c(=O)n4C)cn1 [AZD0156] + C[C@@H]1COCCN1C2=NC(=NC(=C2)C3(CC3)[S@](=N)(=O)C)C4=C5C=CNC5=NC=C4 [AZD6738] (first compound max 1 µM, 7x7, partner max 10 µM)
combination Emax [1]: 0.615
combination Emax [2]: 0.925
combination Emax [3]: 0.745
combination Emax [4]: 0.546
combination Emax [5]: 0.953
combination Emax [6]: 0.552
combination Emax [7]: 0.605
combination Emax [8]: 0.446
combination Emax [9]: 0.46
combination Emax [10]: 0.987
combination Emax [11]: 0.59
combination Emax [12]: 0.469
combination Emax [13]: 0.872
combination Emax [14]: 0.877
combination Emax [15]: 0.588
combination Emax [16]: 0.578
combination Emax [17]: 0.911
combination Emax [18]: 0.857
combination Emax [19]: 0.699
combination Emax [20]: 0.345

Cc1c2c(nn1C)CSCc1cc(n(C)n1)CSc1cc(c3ccccc3c1)OCCCc1c(C(=O)O)n(C)c3c-2c(Cl)ccc13 [AZD5991] + C[C@@H](Nc1cc(F)cc(F)c1)c1cc(C(=O)N(C)C)cc2c(=O)cc(N3CCOCC3)oc12 [AZD8186] (first compound max 1 µM, 7x7, partner max 3 µM)
combination Emax [1]: 0.266
combination Emax [2]: 0.521
combination Emax [3]: 0.894
combination Emax [4]: 0.281
combination Emax [5]: 0.957
combination Emax [6]: 0.291
combination Emax [7]: 0.336
combination Emax [8]: 0.322
combination Emax [9]: 0.476
combination Emax [10]: 1
combination Emax [11]: 0.644
combination Emax [12]: 0.947
combination Emax [13]: 0.985
combination Emax [14]: 0.369
combination Emax [15]: 0.365
combination Emax [16]: 0.585
combination Emax [17]: 0.268
combination Emax [18]: 0.975
combination Emax [19]: 0.322
combination Emax [20]: 0.586

Cc1c2c(nn1C)CSCc1cc(n(C)n1)CSc1cc(c3ccccc3c1)OCCCc1c(C(=O)O)n(C)c3c-2c(Cl)ccc13 [AZD5991] + CC1(C)CCC(CN2CCN(c3ccc(C(=O)NS(=O)(=O)c4ccc(NCC5CCOCC5)c([N+](=O)[O-])c4)c(Oc4cnc5[nH]ccc5c4)c3)CC2)=C(c2ccc(Cl)cc2)C1 [Venetoclax] (first compound max 1 µM, 7x7, partner max 1 µM)
combination Emax [1]: 0.175
combination Emax [2]: 0.725
combination Emax [3]: 0.877
combination Emax [4]: 0.0765
combination Emax [5]: 0.968
combination Emax [6]: 0.38
combination Emax [7]: 0.451
combination Emax [8]: 0.236
combination Emax [9]: 0.45
combination Emax [10]: 1
combination Emax [11]: 0.709
combination Emax [12]: 0.927
combination Emax [13]: 0.976
combination Emax [14]: 0.793
combination Emax [15]: 0.497
combination Emax [16]: 0.145
combination Emax [17]: 0.199
combination Emax [18]: 0.863
combination Emax [19]: 0.145
combination Emax [20]: 0.624

CC1(C)CCC(CN2CCN(c3ccc(C(=O)NS(=O)(=O)c4ccc(NCC5CCOCC5)c([N+](=O)[O-])c4)c(Oc4cnc5[nH]ccc5c4)c3)CC2)=C(c2ccc(Cl)cc2)C1 [Venetoclax] + C[C@@H]1COCCN1C2=NC(=NC(=C2)C3(CC3)[S@](=N)(=O)C)C4=C5C=CNC5=NC=C4 [AZD6738] (first compound max 1 µM, 7x7, partner max 10 µM)
combination Emax [1]: 0.443
combination Emax [2]: 0.865
combination Emax [3]: 0.884
combination Emax [4]: 0.624
combination Emax [5]: 0.954
combination Emax [6]: 0.731
combination Emax [7]: 0.666
combination Emax [8]: 0.442
combination Emax [9]: 0.52
combination Emax [10]: 1
combination Emax [11]: 0.73
combination Emax [12]: 0.472
combination Emax [13]: 0.906
combination Emax [14]: 0.749
combination Emax [15]: 0.562
combination Emax [16]: 0.5
combination Emax [17]: 0.932
combination Emax [18]: 0.515
combination Emax [19]: 0.813
combination Emax [20]: 0.495

NC1(C(=O)N[C@@H](CCO)c2ccc(Cl)cc2)CCN(c2ncnc3[nH]ccc23)CC1 [Capivasertib] + CC(C)n1c(=O)n(C)c2cnc3cc(F)c(-c4ccc(OCCCN5CCCCC5)nc4)cc3c21 [AZD1390] (first compound max 10 µM, 7x7, partner max 0.3 µM)
combination Emax [1]: 0.318
combination Emax [2]: 0.286
combination Emax [3]: 0.341
combination Emax [4]: 0.374
combination Emax [5]: 0.376
combination Emax [6]: 0.407
combination Emax [7]: 0.188
combination Emax [8]: 0.227
combination Emax [9]: 0.353
combination Emax [10]: 0.874
combination Emax [11]: 0.33
combination Emax [12]: 0.35
combination Emax [13]: 0.237
combination Emax [14]: 0.144
combination Emax [15]: 0.44
combination Emax [16]: 0.541
combination Emax [17]: 0.4
combination Emax [18]: 0.249
combination Emax [19]: 0.307
combination Emax [20]: 0.469

COc1cccc(OCCCN)c1-c1cc(Nc2cnc(C#N)cn2)n[nH]1 [Prexasertib] + C=CCn1c(=O)c2cnc(Nc3ccc(N4CCN(C)CC4)cc3)nc2n1-c1cccc(C(C)(C)O)n1 [AZD1775] (first compound max 1 µM, partner max 1 µM)
combination Emax [1]: 0.627
combination Emax [2]: 1
combination Emax [3]: 1
combination Emax [4]: 0.627
combination Emax [5]: 0.978
combination Emax [6]: 0.7
combination Emax [7]: 0.987
combination Emax [8]: 0.638
combination Emax [9]: 0.845
combination Emax [10]: 0.998
combination Emax [11]: 0.992
combination Emax [12]: 0.526
combination Emax [13]: 0.962
combination Emax [14]: 0.999
combination Emax [15]: 0.786
combination Emax [16]: 0.858
combination Emax [17]: 0.975
combination Emax [18]: 0.888
combination Emax [19]: 0.804
combination Emax [20]: 0.62

COc1cccc(OCCCN)c1-c1cc(Nc2cnc(C#N)cn2)n[nH]1 [Prexasertib] + Cc1cc2ncnn2cc1Nc1ncc2c(n1)n(C1CCOCC1)c(=O)n2C [AZD7648] (first compound max 1 µM, 7x7, partner max 10 µM)
combination Emax [1]: 0.599
combination Emax [2]: 1
combination Emax [3]: 0.906
combination Emax [4]: 0.582
combination Emax [5]: 0.962
combination Emax [6]: 0.649
combination Emax [7]: 0.792
combination Emax [8]: 0.549
combination Emax [9]: 0.672
combination Emax [10]: 0.998
combination Emax [11]: 0.945
combination Emax [12]: 0.492
combination Emax [13]: 0.956
combination Emax [14]: 0.995
combination Emax [15]: 0.725
combination Emax [16]: 0.869
combination Emax [17]: 0.983
combination Emax [18]: 0.835
combination Emax [19]: 0.763
combination Emax [20]: 0.349

Cc1c2c(nn1C)CSCc1cc(n(C)n1)CSc1cc(c3ccccc3c1)OCCCc1c(C(=O)O)n(C)c3c-2c(Cl)ccc13 [AZD5991] + C=CCn1c(=O)c2cnc(Nc3ccc(N4CCN(C)CC4)cc3)nc2n1-c1cccc(C(C)(C)O)n1 [AZD1775] (first compound max 1 µM, partner max 1 µM)
combination Emax [1]: 0.512
combination Emax [2]: 0.879
combination Emax [3]: 0.944
combination Emax [4]: 0.705
combination Emax [5]: 0.992
combination Emax [6]: 0.402
combination Emax [7]: 0.711
combination Emax [8]: 0.437
combination Emax [9]: 0.811
combination Emax [10]: 1
combination Emax [11]: 0.992
combination Emax [12]: 0.881
combination Emax [13]: 1
combination Emax [14]: 0.851
combination Emax [15]: 0.605
combination Emax [16]: 0.411
combination Emax [17]: 0.55
combination Emax [18]: 0.758
combination Emax [19]: 0.6
combination Emax [20]: 0.778

CC1(C)CCC(CN2CCN(c3ccc(C(=O)NS(=O)(=O)c4ccc(NCC5CCOCC5)c([N+](=O)[O-])c4)c(Oc4cnc5[nH]ccc5c4)c3)CC2)=C(c2ccc(Cl)cc2)C1 [Venetoclax] + CN(C)CCCOc1ccc(-c2ccc3ncc4c(c3c2)n(C2CCOCC2)c(=O)n4C)cn1 [AZD0156] (first compound max 1 µM, 7x7, partner max 1 µM)
combination Emax [1]: 0.18
combination Emax [2]: 0.48
combination Emax [3]: 0.329
combination Emax [4]: 0.242
combination Emax [5]: 0.807
combination Emax [6]: 0.323
combination Emax [7]: 0.375
combination Emax [8]: 0.245
combination Emax [9]: 0.179
combination Emax [10]: 0.986
combination Emax [11]: 0.207
combination Emax [12]: 0.465
combination Emax [13]: 0.269
combination Emax [14]: 0.174
combination Emax [15]: 0.212
combination Emax [16]: 0.198
combination Emax [17]: 0.217
combination Emax [18]: 0.171
combination Emax [19]: 0.227
combination Emax [20]: 0.546

COc1nnc2ccc(N3CCC(c4ccc(OCCN5CCN(C)C(=O)[C@H]5C)cc4)CC3)nn12 [AZD5153] + C[C@@H]1COCCN1C2=NC(=NC(=C2)C3(CC3)[S@](=N)(=O)C)C4=C5C=CNC5=NC=C4 [AZD6738] (first compound max 1 µM, 7x7, partner max 10 µM)
combination Emax [1]: 0.545
combination Emax [2]: 0.878
combination Emax [3]: 0.991
combination Emax [4]: 0.664
combination Emax [5]: 0.985
combination Emax [6]: 0.834
combination Emax [7]: 0.919
combination Emax [8]: 0.524
combination Emax [9]: 0.637
combination Emax [10]: 1
combination Emax [11]: 0.988
combination Emax [12]: 0.718
combination Emax [13]: 0.876
combination Emax [14]: 0.954
combination Emax [15]: 0.629
combination Emax [16]: 0.663
combination Emax [17]: 0.997
combination Emax [18]: 0.465
combination Emax [19]: 0.799
combination Emax [20]: 0.549

C=CCn1c(=O)c2cnc(Nc3ccc(N4CCN(C)CC4)cc3)nc2n1-c1cccc(C(C)(C)O)n1 [AZD1775] + O=C(c1cc(Cc2n[nH]c(=O)c3ccccc23)ccc1F)N1CCN(C(=O)C2CC2)CC1 [Olaparib] (first compound max 1 µM, partner max 10 µM)
combination Emax [1]: 0.495
combination Emax [2]: 0.88
combination Emax [3]: 0.893
combination Emax [4]: 0.274
combination Emax [5]: 0.93
combination Emax [6]: 0.433
combination Emax [7]: 0.737
combination Emax [8]: 0.284
combination Emax [9]: 0.551
combination Emax [10]: 0.999
combination Emax [11]: 0.905
combination Emax [12]: 0.259
combination Emax [13]: 0.792
combination Emax [14]: 0.284
combination Emax [15]: 0.651
combination Emax [16]: 0.428
combination Emax [17]: 0.562
combination Emax [18]: 0.447
combination Emax [19]: 0.307
combination Emax [20]: 0.639

COc1nnc2ccc(N3CCC(c4ccc(OCCN5CCN(C)C(=O)[C@H]5C)cc4)CC3)nn12 [AZD5153] + Cc1c2c(nn1C)CSCc1cc(n(C)n1)CSc1cc(c3ccccc3c1)OCCCc1c(C(=O)O)n(C)c3c-2c(Cl)ccc13 [AZD5991] (first compound max 1 µM, 7x7, partner max 1 µM)
combination Emax [1]: 0.442
combination Emax [2]: 0.815
combination Emax [3]: 0.998
combination Emax [4]: 0.602
combination Emax [5]: 0.978
combination Emax [6]: 0.685
combination Emax [7]: 0.993
combination Emax [8]: 0.436
combination Emax [9]: 0.814
combination Emax [10]: 1
combination Emax [11]: 0.936
combination Emax [12]: 0.969
combination Emax [13]: 0.933
combination Emax [14]: 1
combination Emax [15]: 0.473
combination Emax [16]: 0.667
combination Emax [17]: 0.837
combination Emax [18]: 0.98
combination Emax [19]: 0.566
combination Emax [20]: 0.773
